Experimental findings from patent US20260242359A1, “IRHOM2 INHIBITORS AND USES THEREOF” (NEW YORK SOCIETY FOR THE RELIEF OF THE RUPTURED AND …, priority 2023, published 2026) are described below.

Holding throughout (format): cell-based
Experiment [1] relates to PMA-stimulated TGFα release from HEK-293 cells (substrate of iRhom1/ADAM17 and iRhom2/ADAM17). Kind of experiment: Counter screen (Example 4a): PMA-stimulated TGFα release from HEK-293 cells, AP readout. The note with it: Homo sapiens, HEK293, HEK-293 cells expressing TGFα-AP, PMA 100 ng/mL, 2 h, read-out: Counter Screen XC50 TGFα. The method, then:
A tertiary counterscreen was also performed to monitor the release of TGFα, which is a substrate of iRhom1/ADAM17 and iRhom2/ADAM17, so its release should not be blocked by an iRhom2-selective inhibitor (Maretzky T et al. (July 2013), “iRhom2 controls the substrate selectivity of stimulated ADAM117-dependent ectodomain shedding”, PNAS 110(28): 11433-11438; and Li X et al. (May 2015), “iRhoms 1 and 2 are essential upstream regulators of ADAM17-dependent EGFR signaling”, PNAS 112(19): 6080-6085).
(§1) First, expression plasmids for alkaline phosphatase (AP)-fused KL2 and TGFα were designed and generated through gene synthesis followed by subcloning into the pcDNA3.1(+)/Hygro expression vector. […] During cell culturing, cell density and viability were monitored to ensure optimal conditions for the transfections. After PMA stimulation, AP-coupled KL2 or TGFα were detected by measurement of AP activity in the supernatant. […]
(§2) After electroporation, cells were further cultured in presence of selection antibiotics, hygromycin B, to generate stably transfected polyclonal cell pools. […] Final assay conditions were determined for the selected pools. […]
60 μL of cells (20,000/well) were added to a sterile 384-well plate. […] The reaction was stopped by addition of 20 μL of NaOH (1 M final conc.) and the absorbance of pNP was measured at 405 nm.

Experiment [2] deals with PMA-stimulated KL2 release from HEK-293 cells (iRhom2/ADAM17 selective substrate). Kind of experiment: Secondary screen (Example 3a): PMA-stimulated KL2 release from HEK-293 cells, AP readout. The settings on record: Homo sapiens, HEK293, HEK-293 cells expressing KL2-AP, PMA 500 ng/mL, 2 h, read-out: Secondary Screen XC50 KL2.
Text: (§3) Two separate screens to identify novel small molecule inhibitors of iRhom2/ADAM17 activity were developed. […] Therefore, the primary screen for small molecule inhibitors of iRhom2/ADAM17 was a screen for inhibitors that blocked the release of TNFα from LPS-stimulated THP-1 human myeloid cells, a process that depends on iRhom2 and ADAM17. […]
as §1, §2
60 μL of cells (40,000/well) were added to a sterile 384-well plate. […] The reaction was stopped by addition of 20 μL of NaOH (1 M final conc.) and the absorbance of pNP was measured at 405 nm.

For experiment [3], the system named is TNFα release from LPS-stimulated THP-1 cells (iRhom2/ADAM17-dependent). Kind of experiment: Primary screen (Example 1a): LPS-stimulated TNFα release from THP-1 cells, HTRF. The note with it: Homo sapiens, LPS 100 ng/mL, 3 h, normalized against 50 μM Batimastat, read-out: Primary Screen XC50 TNFα. The method, then:
as §3
THP-1 cells were plated in 384 or 1,536 wells and transferred on the ultra-high throughput screening (uHTS) platform Mark III, and TNFα shedding was initiated by LPS stimulation of THP-1 cells. The extent of released TNFα was detected with the corresponding HTRF antibodies labeled with europium cryptate (donor) and d2 (acceptor). […]
7.5 nL compound and controls in DMSO [10 μM in assay; 0.25% DMSO in 3 μL Assay] were dissolved in 2 μL cell suspension [2.4E6/mL; 4800 cells/well; culture w/o PenStrep], pre-incubated at 37° C., 5% CO2, for 15 min with 1 μL LPS [100 ng/mL in 3 μL assay]. […] After an incubation at room temperature for 2 h or longer, the HTRF readout was performed. […]
For orientation: In TR-FRET formats the signal depends on donor and acceptor labels being close together.

Where only a bound is given, the exact number is not on record here.

Turning to `CCC(=O)NCCc1c(/C=C2/C(=O)NC(=O)N(c3ccc(C)cc3C)C2=O)[nH]c2ccccc12` [Compound 1], the IC50 in experiment [1] was 12.6 µM; in experiment [2] it was above 128 µM; in experiment [3], below 0.802 µM.
Take `CCOC(=O)c1ccc(Nc2nc3nonc3n3nnnc23)cc1` [Compound 2]: the IC50 was 9.91 µM in experiment [1], above 128 µM in experiment [2] and below 0.802 µM in experiment [3].
